Source: patent US20260345609A1, “METHODS FOR PROMOTING PERSISTENCE OF CELL THERAPY” (Legend Biotech Ireland Limited, priority 2022, published 2026)

Tested on: CAR-γδT cells
Assay: In vitro mixed lymphoid (MLR) model with CAR-γδT cells, UnT and U937 cells: graft CAR-γδT cells
Format: cell-based, human
Conditions: 0.05 μM and 0.5 μM MTX
Procedure: To evaluate the ability of γδ T cells to tolerate allogeneic T cell rejection, an in vitro mixed lymphoid (MLR) model was established.
Using the T cells from a random healthy donor (B donor), CAR-γδT cells were prepared following the method in Example 1, as the graft cells. Un-transduced T cells (UnT) from another random healthy donor (T cell donor A) were also prepared, as the host cells.
The density of CLL1 positive human lymphoma cells (U937) was adjusted to 1×10^6 cells/mL. U937 cells were treated with 20 μg/mL mitomycin at 37° C. for 3 h, washed three times with 10 mL DPBS, and suspended in the culture medium. 20×10^6 untransduced T cells (UnT, T cell donor A), 1×10^6 CAR-γδT cells (T cell donor B), and 5×10^6 treated human lymphoma cells U937 were mixed and cultured in the medium. The cell mixture was divided into 3 groups, and 0 μM, 0.05 μM MTX, or 0.5 μM MTX was added, respectively. […] CAR-γδT cells were stimulated repeatedly with U937 cells at day0, day4, day7 at an E/T ratio of 1:1 According to the formula: fold change of cell number (UnT)=[cell number counted by AOPI×(CD3-/TCR VY9+%)]/20, fold change of cell number (CAR-γδT)=[cell number counted by AOPI×(CD3+/TCR Vγ9+%)]/1, the cell proliferation curves of UnT and CAR-γδT cells were plotted.

With `CN(Cc1cnc2nc(N)nc(N)c2n1)c1ccc(C(=O)N[C@@H](CCC(=O)O)C(=O)O)cc1` [MTX, methotrexate] the “protective effect on heterologous CAR-γδT cells” value was “good protective effect on heterologous CAR-γδT cells”.
